Laboratory results taken from patent publication US20080145433A1 (GILEAD COLORADO, INC., priority 2006, published 2008).
Like-named read-outs stand apart in the source and are kept apart here.

Tests used:
ETA [1] = target: T1, ETA (Homo sapiens, UniProt P25101); test: ETA receptor affinity reported by Riechers et al (1996); type: binding; conditions: calculated from Riechers et al (1996) data
T1 sequence (P25101 21-427): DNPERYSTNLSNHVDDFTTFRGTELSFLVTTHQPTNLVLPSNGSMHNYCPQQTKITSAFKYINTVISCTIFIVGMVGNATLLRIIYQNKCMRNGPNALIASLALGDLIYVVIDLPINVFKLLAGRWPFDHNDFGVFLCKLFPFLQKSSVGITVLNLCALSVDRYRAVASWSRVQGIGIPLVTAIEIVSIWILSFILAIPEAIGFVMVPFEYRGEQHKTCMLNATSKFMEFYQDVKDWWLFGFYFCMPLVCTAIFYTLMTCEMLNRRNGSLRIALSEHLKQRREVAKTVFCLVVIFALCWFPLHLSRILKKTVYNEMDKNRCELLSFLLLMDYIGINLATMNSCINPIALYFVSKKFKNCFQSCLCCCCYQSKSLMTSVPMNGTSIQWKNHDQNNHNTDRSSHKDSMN

ETA [2] = target: T1, ETA; conditions: Riechers et al (1996); read-out: affinity for ETA (KiA); cited from earlier work
ETB [3] = target: T2, ETB (Homo sapiens, UniProt P24530); conditions: Riechers et al (1996); read-out: affinity for ETB (KiB); cited from earlier work
T2 sequence (P24530 27-442): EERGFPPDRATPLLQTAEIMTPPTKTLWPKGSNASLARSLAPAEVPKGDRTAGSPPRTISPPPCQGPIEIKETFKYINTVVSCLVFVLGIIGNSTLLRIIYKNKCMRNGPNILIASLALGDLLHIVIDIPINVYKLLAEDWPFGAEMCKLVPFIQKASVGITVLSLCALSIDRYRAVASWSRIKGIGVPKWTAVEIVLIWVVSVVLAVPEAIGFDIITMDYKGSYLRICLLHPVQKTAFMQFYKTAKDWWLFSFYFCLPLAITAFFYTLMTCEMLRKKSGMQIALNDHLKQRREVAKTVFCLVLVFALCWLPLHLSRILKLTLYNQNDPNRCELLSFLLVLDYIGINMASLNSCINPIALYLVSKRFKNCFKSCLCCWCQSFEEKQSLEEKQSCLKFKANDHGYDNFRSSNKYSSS

[4] = PK of darusentan tablets, single oral dose, congestive heart failure patients (Example 3); type: in vivo, human; conditions: CHF patients, single oral doses 10-300 mg
From the text: This was a multi-center, prospective, uncontrolled clinical trial. […] At least 12 patients received each dose, in addition to their normal medication for CHF.
Arithmetic means and standard deviations of Cmax, Tmax and AUC, based on individual values of these parameters calculated by standard PK methods, are presented in Table 3. As this was a single dose study, Cmin was not determined.

ETA [5] = target: T1, ETA; conditions: Lip (2001); cited from earlier work
ETA [6] = target: T1, ETA; test: 125[I]-endothelin-1 receptor binding cold ligand competition curves in human myocardial membranes (ETA); set-up: human myocardial membranes prepared from failing and non-failing left ventricles; from tissue; host or cells: human left ventricular myocardium (failing and non-failing), membranes; conditions: mean of 8 assays
[7] = published values, Boss et al. (2001); cited from earlier work
ETB [8] = target: T2, ETB; test: 125[I]-endothelin-1 receptor binding cold ligand competition curves in human myocardial membranes (ETB); set-up: human myocardial membranes prepared from failing and non-failing left ventricles; from tissue; host or cells: human left ventricular myocardium (failing and non-failing), membranes; conditions: 10 μM Gpp(NH)p, 4-hour incubation, steady-state binding, mean of 8 assays

Structure (SMILES) | ETA/ETB selectivity (KiB/KiA) (ETA [1]) | Ki (ETA [2]) [nM] | Ki (ETB [3]) [nM] | Pharmacokinetics: dose dependence of Cmax and AUC [4] | ETA/ETB selectivity (ETA [5]) | Ki (ETA [6]; 10 μM Gpp(NH)p, 4-hour incubation, steady-state binding) [nM] | ETA selectivity (fold) (ETA [6]) | T1/2 [7] [h] | Ki (ETB [8]) [nM]
COc1cc(OC)nc(OC(C(=O)O)C(OC)(c2ccccc2)c2ccccc2)n1 (racemic) [racemate, 2-(4,6-dimethoxypyrimidin-2-yloxy)-3-methoxy-3,3-diphenylpropionic acid] | about 62 | 6 | 371 |  |  |  |  |  | 
COc1cc(OC)nc(O[C@H](C(=O)O)C(OC)(c2ccccc2)c2ccccc2)n1 [darusentan, (+)-(S)-2-(4,6-dimethoxypyrimidin-2-yloxy)-3-methoxy-3,3-diphenylpropionic acid] |  | 3 |  | appeared to be linear | about 160 | 0.178 ± 0.055 | 1181 ± 148 | 10 to 12 | 216 ± 85
COc1cc(OC)nc(O[C@@H](C(=O)O)C(OC)(c2ccccc2)c2ccccc2)n1 [less potent enantiomer] |  | 150 |  |  |  |  |  |  | 
